In patent US9920030B2 (priority 2006, dated 2018):
Like-named read-outs stand apart in the source and are kept apart here.

Key:
Format in all cases: in vivo
[1] = test system: Phytophthora infestans (the causal agent of tomato late blight); assay: whole plant or invertebrate
[2] = test system: Plasmopara vilicola (the causal agent of grape downy mildew); assay: Test A: grape downy mildew, test suspension sprayed on grape seedlings after inoculation, visual disease rating
Procedure, shortened: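 Compounds dissolved in acetone (3% of final volume), suspended in 50/50 acetone/water with 250 ppm Trem 014; 200 ppm to run-off equals 500 g/ha. Seedlings inoculated, held saturated at 20 °C 24 h, then sprayed; 5 days at 20 °C, 24 h saturated, then visual rating, 0–100% control versus untreated.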

[3] = test system: Phytophthora infestans (the causal agent of tomato late blight); assay: whole plant or invertebrate; remark: listed apart in the source
[4] = compounds without asterisk (application rate not given), 100 = 100% disease control, 0 = no control relative to the controls
[5] = Phytophthora infestans, 144 h, read-out: Percent Disease Control, Test B
[6] = Phytophthora infestans, 96 h, read-out: Percent Disease Control, Test C

Compound	Percent Disease Control, Test B [1, 4] [%]	Percent Disease Control, Test A [2, 4] [%]	Percent Disease Control, Test C [3, 4] [%]	Percent Disease Control, Test B ([1]; * tested at 40 ppm) [%]	Percent Disease Control, Test A ([2]; * tested at 40 ppm) [%]	Percent Disease Control, Test C ([3]; * tested at 40 ppm) [%]	also measured
Cc1cc(C(F)(F)F)nn1CC(=O)N1CCC(c2nc(C3=NC4CCCCC4N3)cs2)CC1 (stereo not drawn) [Compound 99]	33	31	0				
Cc1cc(C(F)(F)F)nn1CC(=O)N1CCC(c2nc(C3=NOC4(CCOCC4)C3)cs2)CC1 [Compound 173]				100	100	99	
Cc1cc(C(F)(F)F)nn1CC(=O)N1CCN(c2nc(C3=NOC(c4ccccc4)C3)cs2)CC1 (stereo not drawn) [Compound 154, 1-[4-[4-(4,5-dihydro-5-phenyl-3-isoxazolyl)-2-thiazolyl]-1-piperazinyl]-2-[5-methyl-3-(trifluoromethyl)-1H-pyrazol-1-yl]ethanone]							pest or weed control at 40 ppm [1, 5]: 100%; pest or weed control at 40 ppm ([2]; Plasmopara, 144 h, * tested at 40 ppm, read-out: Percent Disease Control, Test A): 90%; pest or weed control at 40 ppm [3, 6]: 99%
Cc1cc(C(F)(F)F)nn1CC(=O)N1CCC(c2nc(-c3ncc(-c4ccccc4)o3)cs2)CC1 [Compound 42]	100	62	96				
CC(=O)OCC1(c2ccccc2)CC(c2csc(C3CCN(C(=O)Cn4nc(C(F)(F)F)cc4C)CC3)n2)=NO1 (stereo not drawn) [Compound 156]				100	100	99	
Cc1cc(C(F)(F)F)nn1CC(=O)N1CCC(c2nc(C3=NOC(NC(=O)c4ccccc4C(=O)[O-])C3)cs2)CC1.[Na+] (stereo not drawn) [Compound 216]				100	100	99	
Cc1cc(C(F)(F)F)nn1CC(=O)N1CCC(c2nc(C3=NOC(c4ccccc4)(C4CC4)C3)cs2)CC1 (stereo not drawn) [Compound 103]				100	100	99	
Cc1cc(C(F)(F)F)nn1CC(=O)N1CCC(c2nc(C3=NOC(c4ccccc4)C3)cs2)CC1 (single isomer, unassigned) [Compound 4]							Percent Disease Control, Test B ([1]; ** tested at l0 ppm): 100%; Percent Disease Control, Test A ([2]; ** tested at l0 ppm): 100%; Percent Disease Control, Test C ([3]; ** tested at l0 ppm): 99%
Cc1cc(C(F)(F)F)nn1CC(=O)N1CCC(c2nc(-c3ccc4ccccc4c3)cs2)CC1 [Compound 61]	77	80	0				
Cc1cc(C(F)(F)F)nn1CC(=O)N1CCC(c2nc(C3=NOC(CS(C)(=O)=O)(c4ccccc4)C3)cs2)CC1 (stereo not drawn) [Compound 143]				100	99	99	
1-[4-[4-[5-(2-chlorophenyl)-4,5-dihydro-3-isoxazolyl]-2-thiazolyl]-1-piperidinyl]-2-[5-methyl-3-(trifluoromethyl)-1H-pyrazol-1-yl]ethanone [Compound 8]	100	96	99				
Cc1cc(C(F)(F)F)nn1CC(=O)N1CCC(c2nc(-c3cccnc3)cs2)CC1 [Compound 124]	98	8	26				
Cc1cc(C)n(CC(=O)N2CCC(c3nc(C4=NO[C@]5(CCCc6ccccc65)C4)cs3)CC2)n1 (racemic) [Compound 164, 1-[4-[4-[(1′R)-3′,4′-dihydrospiro[isoxazole-5(4H),1′(2′H)-naphthalen]-3-yl]-2-thiazolyl]-1-piperidinyl]-2-(3,5-dimethyl-1H-pyrazol-1-yl)ethanone]							pest or weed control at 10 µg/mL [1, 5]: 100%; pest or weed control at 10 µg/mL ([2]; Plasmopara, 144 h, ** tested at l0 ppm, read-out: Percent Disease Control, Test A): 99%; pest or weed control at 10 µg/mL [3, 6]: 99%
CC(=O)N1C(c2ccccc2)COC1c1csc(C2CCN(C(=O)Cn3nc(C(F)(F)F)cc3C)CC2)n1 (stereo not drawn) [Compound 14]	99	25	99				
Cc1cc(C(F)(F)F)nn1CC(=O)N1CCC(c2nc(C3=NOC4(c5ccccc5)CCCCC34)cs2)CC1 (stereo not drawn) [Compound 209]				100	99	90	
O=C(Cn1nc(Cl)cc1Cl)N1CCC(c2nc(C3=NOC(c4ccccc4)C3)cs2)CC1 (stereo not drawn) [Compound 166]							Percent Disease Control, Test B ([1]; ** tested at l0 ppm): 100%; Percent Disease Control, Test A ([2]; ** tested at l0 ppm): 100%; Percent Disease Control, Test C ([3]; ** tested at l0 ppm): 98%
Cc1cc(C(F)(F)F)nn1CC(=O)N1CCC(c2nc(C3=NC(c4ccccc4)C(c4ccccc4)N3)cs2)CC1 (stereo not drawn) [Compound 108]	58	0	0				
Cc1cc(C(F)(F)F)nn1CC(=O)N1CCC(c2nc(C3=NOC4(CCCCCC4)C3)cs2)CC1 [Compound 174]				100	100	99	
Cc1cc(C(F)(F)F)nn1CC(=O)N1CCC(c2nc(C3=NOC4(CC(=O)N(C)C4=O)C3)cs2)CC1 (stereo not drawn) [Compound 267]	100	100	100				
COc1ccccc1C1(C)CC(c2csc(C3CCN(C(=O)Cn4nc(C(F)(F)F)cc4C)CC3)n2)=NO1 (stereo not drawn) [Compound 140]				100	98	57	
Cc1cc(C(F)(F)F)nn1CC(=O)N1CCC(c2nc(C3=NNC(c4ccccc4)C3)cs2)CC1 (stereo not drawn) [Compound 183]				92	92	33	
Cc1cc(C(F)(F)F)nn1CC(=O)N1CCC(c2nc(-c3ccc(C(F)(F)F)cc3)cs2)CC1 [Compound 122]	46	99	0				
Cc1cc(C(F)(F)F)nn1CC(=O)N1CCC(c2nc(CN3C(=O)c4ccccc4C3=O)cs2)CC1 [Compound 191]	100	99	99				
Cc1cc(C(F)(F)F)nn1CC(=O)N1CCC(c2nc(C3=NOC(N4C(=O)CN(C)C4=O)C3)cs2)CC1 (stereo not drawn) [Compound 234]				100	99	100	
Cc1cc(C(F)(F)F)nn1CC(=O)N1CCC(c2nc(-c3cccc(Oc4ccccc4)c3)cs2)CC1 [Compound 75]	24	72	0				
Cc1cc(C(F)(F)F)nn1CC(=O)N1CCC(c2nc(C3=NOC(c4ccsc4)C3)cs2)CC1 (stereo not drawn) [Compound 148]							Percent Disease Control, Test B ([1]; ** tested at l0 ppm): 100%; Percent Disease Control, Test A ([2]; ** tested at l0 ppm): 100%; Percent Disease Control, Test C ([3]; ** tested at l0 ppm): 99%
Cc1cc(C(F)(F)F)nn1CC(=O)N1CCC(c2nc(C3=NOC(Oc4ccccc4)C3)cs2)CC1 (stereo not drawn) [Compound 204]				100	99	99	
Cc1cc(C(F)(F)F)nn1CC(=O)N1CCC(c2nc(C3=NOC4C(=O)N(C)C(=O)C34)cs2)CC1 (stereo not drawn) [Compound 45]	26	30	0				
Cc1cc(C(F)(F)F)nn1CC(=O)N1CCC(c2nc(C3=NOC(c4cccc(Cl)c4)C3)cs2)CC1 (racemic) [Compound 17]				99	100	99	
